Laboratory results reported in article PMC7238241, “Lack of Correlation between In Vitro and In Vivo Studies on the Inhibitory Effects of (‒)-Sophoranone on CYP2C9 Is Attributable to Low Oral Absorption and Extensive Plasma Protein Binding of (‒)-Sophoranone” (Pharmaceutics, 2020).
Read-outs that look alike come from different tables or passages of the source.

Tests used:
[1] = tested on: CYP3A4; design: method as in PMID 29753067; conditions: cited from earlier work
[2] = biological target: T1, CYP1A2 (Homo sapiens, UniProt P05177); assay: Reversible CYP1A2 inhibition, cocktail assay (phenacetin O-deethylase) in human liver microsomes; type: biochemical
T1 construct: tissue Corning Life Sciences; host or cells: pooled human liver microsomes, 150 donors
T1 sequence (P05177 1-516): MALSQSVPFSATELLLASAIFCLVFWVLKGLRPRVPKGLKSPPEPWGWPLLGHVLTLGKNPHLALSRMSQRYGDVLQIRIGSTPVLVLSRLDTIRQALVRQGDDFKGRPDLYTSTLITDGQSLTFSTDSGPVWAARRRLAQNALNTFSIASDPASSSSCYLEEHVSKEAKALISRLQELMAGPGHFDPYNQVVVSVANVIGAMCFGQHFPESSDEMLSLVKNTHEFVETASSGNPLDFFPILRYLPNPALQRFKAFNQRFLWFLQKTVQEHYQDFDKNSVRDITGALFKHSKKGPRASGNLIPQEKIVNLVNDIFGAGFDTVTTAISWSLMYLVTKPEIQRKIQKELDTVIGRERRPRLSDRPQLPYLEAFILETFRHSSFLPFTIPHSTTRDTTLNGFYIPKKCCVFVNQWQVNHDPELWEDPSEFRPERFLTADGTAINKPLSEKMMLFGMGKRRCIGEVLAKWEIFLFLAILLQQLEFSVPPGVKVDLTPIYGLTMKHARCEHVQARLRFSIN
Experimental: (§1) The inhibitory effects of SPN on CYP1A2, CYP2A6, CYP2B6, CYP2C8, CYP2C9, CYP2C19, CYP2D6, CYP2E1, and CYP3A4 were evaluated in pooled human liver microsomes through the use of specific CYP probe substrates (cocktail assay), as previously described with a slight modification. Concentrations of each CYP probe in Table 1 were used close to their reported Km values.
(§2) Briefly, a 90-µL incubation mixture, including pooled human liver microsomes (final concentration 0.1 mg/mL), 50 mM phosphate buffer (pH 7.4), each CYP-probe substrate cocktail set, and SPN (0–50 μM), was pre-incubated for 5 min at 37 °C. SPN was dissolved in methanol and spiked into the incubation mixture to a final concentration of 0.5% methanol. […]
(§3) The IC50 values were calculated via nonlinear least-squares regression analysis from logarithmic plots of inhibitor concentration versus percentage of activity remaining after inhibition, using SigmaPlot (ver. 14.0; Systat Software Inc, Chicago, IL, USA). The Ki values were determined from the equations for a single substrate single inhibitor model and the software available in the SigmaPlot Enzyme Kinetics module. Competitive, non-competitive, uncompetitive, or mixed inhibition models were evaluated and ranked according to the best fit based on Akaike Information Criterion (AIC) values. […]

[3] = design: method as in PMID 26068519; conditions: rats, oral 12.9 mg/kg SPN; cited from earlier work
[4] = tested on: CYP1A2, CYP2A6, CYP2B6, CYP2C8, CYP2C9, CYP2C19, CYP2D6, CYP2E1, and CYP3A4; assay: Time-dependent inactivation (IC50 shift) of the nine CYP isoforms in human liver microsomes; type: biochemical; conditions: 30 min pre-incubation with human liver microsomes in the presence of NADPH
Experimental: Pooled human liver microsomes (1 mg/mL) were incubated with SPN (0−50 µM) for 30 min at 37 °C in the absence or presence of an NADPH-generating system (i.e., the “inactivation incubation”). After inactivation incubation, aliquots (10 μL) were transferred into fresh incubation tubes (final volume 100 μL) containing an NADPH-generating system and each P450-selective substrate cocktail set. The reaction mixtures were incubated for 15 min at 37 °C in a shaking water bath. After incubation, the reactions were stopped by adding 200 µL of ice-cold acetonitrile containing 2 µM chlorpropamide, as an internal standard. The incubation mixtures were centrifuged (16,000× g, 15 min) and 5 μL of the supernatant was injected into the LC-MS/MS system. All incubations were performed in triplicate, and the data are shown as the mean ± standard deviation.

[5] = biological target: T2, CYP3A4 (Homo sapiens, UniProt P08684); assay: Reversible CYP3A4 inhibition, cocktail assay (midazolam 1′-hydroxylase) in human liver microsomes; type: biochemical; conditions: midazolam probe
T2 construct: tissue Corning Life Sciences; host or cells: pooled human liver microsomes, 150 donors
Experimental: as §1, §2, §3

[6] = biological target: T3, CYP2D6 (Homo sapiens, UniProt P10635); assay: Reversible CYP2D6 inhibition, cocktail assay (dextromethorphan O-demethylase) in human liver microsomes; type: biochemical
T3 construct: tissue Corning Life Sciences; host or cells: pooled human liver microsomes, 150 donors
Experimental: as §1, §2, §3

[7] = biological target: T4, CYP2C9 (Homo sapiens, UniProt P11712); assay: Inhibition of other CYP2C9-specific pathways (diclofenac 4′-hydroxylation, losartan oxidation) in human liver microsomes; type: biochemical
T4 construct: tissue Corning Life Sciences; host or cells: pooled human liver microsomes, 150 donors
Experimental: The auto-optimized mass transitions were m/z 312 > 231 and m/z 437 > 207.1 for quantification of 4′-hydroxydiclofenac and losartan carboxylic acid, respectively. HPLC conditions were the same as those in the cocktail assay.
The IC50 values were calculated via nonlinear least-squares regression analysis from logarithmic plots of inhibitor concentration versus percentage of activity remaining after inhibition, using SigmaPlot (ver. 14.0; Systat Software Inc, Chicago, IL, USA). The Ki values were determined from the equations for a single substrate single inhibitor model and the software available in the SigmaPlot Enzyme Kinetics module. Competitive, non-competitive, uncompetitive, or mixed inhibition models were evaluated and ranked according to the best fit based on Akaike Information Criterion (AIC) values. For visual inspection, the data were presented as Dixon plots.

[8] = at the highest tested concentration (50 μM)

T2 sequence (P08684 whole entry): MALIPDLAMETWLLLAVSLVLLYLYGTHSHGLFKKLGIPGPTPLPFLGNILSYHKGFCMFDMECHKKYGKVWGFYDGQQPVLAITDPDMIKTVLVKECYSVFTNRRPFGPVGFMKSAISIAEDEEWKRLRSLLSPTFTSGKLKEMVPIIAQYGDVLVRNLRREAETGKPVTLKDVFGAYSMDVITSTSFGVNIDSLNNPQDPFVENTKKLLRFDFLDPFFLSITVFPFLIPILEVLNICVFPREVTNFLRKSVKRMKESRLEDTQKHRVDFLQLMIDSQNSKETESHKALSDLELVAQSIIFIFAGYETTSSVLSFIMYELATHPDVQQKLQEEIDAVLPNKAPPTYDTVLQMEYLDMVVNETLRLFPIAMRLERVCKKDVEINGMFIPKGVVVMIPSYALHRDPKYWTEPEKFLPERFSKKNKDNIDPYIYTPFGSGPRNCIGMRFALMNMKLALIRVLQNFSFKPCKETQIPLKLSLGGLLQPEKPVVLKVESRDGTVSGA
T4 sequence (P11712 whole entry): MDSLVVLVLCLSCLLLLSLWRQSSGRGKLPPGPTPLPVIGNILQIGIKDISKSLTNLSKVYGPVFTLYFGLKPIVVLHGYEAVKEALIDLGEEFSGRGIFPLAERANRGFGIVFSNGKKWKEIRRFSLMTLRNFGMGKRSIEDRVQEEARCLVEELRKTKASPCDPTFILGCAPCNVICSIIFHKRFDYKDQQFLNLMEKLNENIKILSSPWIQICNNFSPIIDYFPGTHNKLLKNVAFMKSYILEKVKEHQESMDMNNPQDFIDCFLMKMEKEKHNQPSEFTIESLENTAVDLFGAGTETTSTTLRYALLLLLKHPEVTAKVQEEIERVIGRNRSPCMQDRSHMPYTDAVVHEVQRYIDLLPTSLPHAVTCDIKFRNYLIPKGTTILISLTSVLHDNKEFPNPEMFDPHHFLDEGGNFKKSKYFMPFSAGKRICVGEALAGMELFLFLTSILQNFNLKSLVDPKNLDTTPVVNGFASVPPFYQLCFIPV
T3 sequence (P10635 whole entry): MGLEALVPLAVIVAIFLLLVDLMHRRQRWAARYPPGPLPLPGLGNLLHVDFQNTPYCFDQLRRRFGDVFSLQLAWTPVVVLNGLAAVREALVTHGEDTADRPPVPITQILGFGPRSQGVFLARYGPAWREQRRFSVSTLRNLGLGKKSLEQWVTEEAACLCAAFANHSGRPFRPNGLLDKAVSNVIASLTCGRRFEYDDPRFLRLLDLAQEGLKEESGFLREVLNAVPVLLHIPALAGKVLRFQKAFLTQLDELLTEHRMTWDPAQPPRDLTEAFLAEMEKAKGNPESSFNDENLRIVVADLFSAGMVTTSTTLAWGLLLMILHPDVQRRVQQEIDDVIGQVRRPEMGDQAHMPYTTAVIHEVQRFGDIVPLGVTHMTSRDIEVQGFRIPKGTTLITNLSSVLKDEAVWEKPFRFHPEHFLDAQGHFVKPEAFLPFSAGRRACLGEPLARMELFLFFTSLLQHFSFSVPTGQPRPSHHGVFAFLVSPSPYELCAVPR

- residual enzyme activity, CYP1A2 [2, 8]: greater than 80%
- IC50 ([2]; human liver microsomes 0.1 mg/mL, cocktail assay, phenacetin probe, n = 3): > 50000 nM
- shift in IC50 after pre-incubation (time-dependent inactivation of the nine CYPs) [4]: no obvious shift in IC50
- residual enzyme activity, CYP3A4 [5, 8]: 53.3 ± 4.00%
- IC50 ([5]; human liver microsomes 0.1 mg/mL, cocktail assay, n = 3): > 50000 nM
- residual enzyme activity, CYP2D6 [6, 8]: 53.9 ± 3.53%
- IC50 ([6]; human liver microsomes 0.1 mg/mL, cocktail assay, dextromethorphan probe, n = 3): > 50000 nM
- IC50 ([7]; IC50, CYP2C9-catalyzed diclofenac 4′-hydroxylation, diclofenac 5 μM): 879 ± 88.8 nM
- IC50 ([7]; losartan 5 μM, read-out: IC50, CYP2C9-catalyzed losartan oxidation): 455 ± 48.6 nM
Structure (SMILES): CC(C)=CCc1cc([C@@H]2CC(=O)c3ccc(O)c(CC=C(C)C)c3O2)cc(CC=C(C)C)c1O [SPN, (‒)-Sophoranone]
- IC50 ([1]; range over other CYP3A4 substrates): 5620 to 38400 nM
- Ki ([1]; read-out: Ki, CYP3A4-catalyzed bufalin 5′-hydroxylation): 2170 ± 290 nM
- maximum plasma concentration (Cmax) [3]: approximately 13.1 ng/mL
